Results as given in the supplement of paper PMC10307832.

Key:
Experiment in all cases: relative viability (nuclei count vs DMSO), 5 days (fraction); higher = more cells survive
[1] = compound: CCN(CCO)CCCC(C)Nc1ccnc2cc(Cl)ccc12 [Hydroxychloroquine] + CC(C)C[C@H](NC(=O)[C@H](Cc1ccccc1)NC(=O)c1cnccn1)B(O)O [Bortezomib] (partner 0.002 µM)
Method in brief: (§1)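 Lung cancer cell lines were pin-tool dosed in 1536-well plates on the day after seeding, with either a lone drug or a fixed anchor-drug dose plus five library-drug doses (not always all listed) in √10 steps. Nuclei were counted on 4× images after 5 days. Relative viability is the ratio of treated-well to vehicle-well nuclei counts, with each value a median of duplicate plates.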

[2] = compound: CCN(CCO)CCCC(C)Nc1ccnc2cc(Cl)ccc12 [Hydroxychloroquine] + NC(=O)Nc1cc(-c2cccc(F)c2)sc1C(=O)N[C@H]1CCCNC1 [AZD7762] (partner 0.2 µM)
Method in brief: as §1

[3] = compound: CCN(CCO)CCCC(C)Nc1ccnc2cc(Cl)ccc12 [Hydroxychloroquine] + Nc1ncn([C@H]2C[C@H](O)[C@@H](CO)O2)c(=O)n1 [Decitabine] (partner 2 µM)
Method in brief: as §1

[4] = compound: CCN(CCO)CCCC(C)Nc1ccnc2cc(Cl)ccc12 [Hydroxychloroquine] + CS(=O)(=O)CCNCc1ccc(-c2ccc3ncnc(Nc4ccc(OCc5cccc(F)c5)c(Cl)c4)c3c2)o1 [Lapatinib] (partner 2 µM)
Method in brief: as §1

Row | Cell Line | relative viability ([1]; first compound 0.5 µM) | relative viability ([1]; first compound 1.581 µM) | relative viability ([1]; first compound 5 µM) | relative viability ([1]; first compound 15.81 µM) | relative viability ([1]; first compound 50 µM) | relative viability ([2]; first compound 0.5 µM) | relative viability ([2]; first compound 1.581 µM) | relative viability ([2]; first compound 5 µM) | relative viability ([2]; first compound 15.81 µM) | relative viability ([2]; first compound 50 µM) | relative viability ([3]; first compound 0.5 µM) | relative viability ([3]; first compound 1.581 µM) | relative viability ([3]; first compound 5 µM) | relative viability ([3]; first compound 15.81 µM) | relative viability ([3]; first compound 50 µM) | relative viability ([4]; first compound 0.5 µM) | relative viability ([4]; first compound 1.581 µM) | relative viability ([4]; first compound 5 µM) | relative viability ([4]; first compound 15.81 µM) | relative viability ([4]; first compound 50 µM)
1 | LCLC-103H | 1.13 | 0.837 | 1.04 | 1.15 | 1.06 | 0.855 | 0.672 | 0.76 | 0.743 | 0.827 | 0.699 | 0.751 | 0.727 | 0.736 | 0.767 | – | – | – | – | –
2 | LK-2 | – | – | – | – | – | 0.424 | 0.334 | 0.447 | 0.411 | 0.312 | 0.308 | 0.297 | 0.36 | 0.268 | 0.284 | 0.918 | 0.947 | 0.883 | 1.03 | 1.04
3 | NCI-H358 | – | – | – | – | – | 0.498 | 0.566 | 0.534 | 0.436 | 0.442 | 0.208 | 0.203 | 0.217 | 0.21 | 0.201 | 0.487 | 0.432 | 0.412 | 0.486 | 0.476
4 | NCI-H441 | – | 0.426 | 0.453 | 0.552 | 0.77 | 1.16 | 1.47 | 1.25 | 1.5 | 1.11 | 0.23 | 0.326 | 0.241 | 0.245 | 0.228 | – | – | – | – | –
5 | NCI-H520 | 0.639 | 0.606 | 0.662 | 0.658 | 0.511 | – | – | – | – | – | 0.532 | 0.549 | 0.513 | 0.491 | 0.526 | 0.934 | 0.898 | 0.857 | 0.958 | 0.978
6 | NCI-H522 | – | – | – | – | – | 0.712 | – | 0.674 | 0.974 | 0.907 | 0.689 | – | 0.566 | 0.676 | 0.59 | – | – | – | – | –
7 | NCI-H661 | 0.795 | 0.719 | 0.652 | 0.761 | 0.825 | – | – | – | – | – | 0.584 | 0.587 | 0.564 | 0.528 | 0.567 | 0.433 | 0.426 | 0.43 | 0.467 | 0.465
8 | NCI-H1299 | 1.01 | 1.01 | 1.04 | 1.03 | 0.942 | – | – | – | – | – | – | – | – | – | – | 0.965 | 0.914 | 0.903 | 0.919 | 0.936
9 | NCI-H1395 | – | – | – | – | – | 0.393 | 0.465 | 0.419 | 0.375 | 0.426 | 0.665 | 0.68 | 0.741 | 0.763 | 0.704 | 1.25 | 1.09 | 0.907 | 0.877 | 0.955
10 | NCI-H1563 | 0.891 | 0.784 | 0.923 | 0.779 | 0.759 | – | – | – | – | – | – | – | – | – | – | 0.839 | 0.756 | 0.951 | 0.798 | 0.866
11 | NCI-H1648 | – | – | – | – | – | 0.657 | 0.758 | 0.575 | 0.531 | 0.562 | 0.51 | 0.447 | 0.512 | 0.518 | 0.484 | – | – | – | – | –
12 | NCI-H1650 | 0.203 | 0.221 | 0.218 | 0.227 | 0.219 | – | – | – | – | – | 0.315 | 0.391 | 0.419 | 0.36 | 0.36 | 0.844 | 0.697 | 0.702 | 0.75 | 0.765
